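The compound was tested at five concentrations on cells cultured in 96-well plates, with a 48-hour exposure period. GI50 marks 50% less growth.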 Activity calls are given as the source filed them. Rule as the data show it: active = GI50 up to about 1.1 µM and inactive = higher.

This is an account of results in ChEMBL document CHEMBL1201862, “PubChem BioAssay data set” (2004).

Some test systems named below: 786-0; CAKI-1; HT-29; Malme-3M; NCI-H226; OVCAR-4; OVCAR-5; RXF 393; SF-539; SK-MEL-5; SK-OV-3; SN12C; SR; UO-31; UACC-257.
What all share (test): growth of human tumour cells (NCI), 48 h

Take `O=C(Nc1ccccc1-c1nn(CO)c(=S)n(CO)c1=O)C(F)(F)F`: the GI50 with 786-0, in the experiment with CAKI-1, in the experiment on HT-29, in the experiment on Malme-3M, in the experiment with NCI-H226 and in the experiment on OVCAR-4 was > 100 µM (inactive) throughout. The GI50 is > 100 µM (inactive) with OVCAR-5; > 100 µM (inactive) with RXF 393; > 100 µM (inactive) in the experiment with SF-539; 31.8 µM (inactive) in the experiment with SK-MEL-5; > 100 µM (inactive) with SK-OV-3; > 100 µM (inactive) in the experiment on SN12C. Further, the GI50 with SR and with UO-31 was > 100 µM (inactive) throughout.

As to `COc1cc(CC(C(=O)O)C(=O)O)c(OC)cc1CC(C(=O)O)C(=O)O`, the GI50 in the experiment with 786-0, in the experiment with CAKI-1, in the experiment on HT-29, in the experiment with Malme-3M, in the experiment on NCI-H226 and in the experiment with OVCAR-4 was > 100 µM (inactive) in each case. For the same compound, the GI50 with OVCAR-5, with RXF 393, in the experiment on SF-539, in the experiment with SK-MEL-5, in the experiment on SK-OV-3 and in the experiment with SN12C was > 100 µM (inactive) throughout. The GI50 with SR, in the experiment with UACC-257 and in the experiment with UO-31 was > 100 µM (inactive) throughout.

As to `Cc1nc2c(ccc3ncccc32)[nH]1`, the GI50 with 786-0, in the experiment with CAKI-1, with HT-29, in the experiment with Malme-3M, in the experiment on OVCAR-4 and in the experiment on OVCAR-5 was > 100 µM (inactive) each time. Further, the GI50 in the experiment on RXF 393, in the experiment on SF-539, with SK-MEL-5, in the experiment with SK-OV-3, in the experiment with SN12C and in the experiment on UACC-257 was > 100 µM (inactive) throughout. Further, the GI50 in the experiment on UO-31 is > 100 µM (inactive).

Take `O=C1OC(c2ccccc2)=N/C1=C/C=C/c1ccco1`: the GI50 in the experiment with 786-0, in the experiment on CAKI-1, with HT-29, with Malme-3M, with OVCAR-4 and in the experiment on OVCAR-5 was > 100 µM (inactive) throughout. The GI50 with RXF 393, in the experiment on SF-539, in the experiment on SK-MEL-5, in the experiment with SK-OV-3, with SN12C and with SR was > 100 µM (inactive) in each case. Further, the GI50 in the experiment with UO-31 was > 100 µM (inactive).

For the compound `CC(C)=CC(C(O)c1ccccc1)S(=O)(=O)c1nccn1C` (configuration not stated), the GI50 in the experiment on 786-0, with HT-29, with Malme-3M, with NCI-H226, in the experiment with OVCAR-4 and in the experiment with OVCAR-5 was > 100 µM (inactive) throughout. The GI50 in the experiment on RXF 393, in the experiment on SF-539, with SK-MEL-5, with SK-OV-3, in the experiment on SN12C and in the experiment with SR was > 100 µM (inactive) throughout. The GI50 with UACC-257 and in the experiment on UO-31 was > 100 µM (inactive) in each case.

As to `COc1ccc(/C=C2/CCCC/C2=N/O)cc1`, the GI50 in the experiment on 786-0 is > 100 µM (inactive); with HT-29, > 100 µM (inactive); with Malme-3M, > 100 µM (inactive); in the experiment with OVCAR-4, 69.5 µM (inactive); with OVCAR-5, > 100 µM (inactive); in the experiment with RXF 393, 40.8 µM (inactive). In addition, the GI50 is > 100 µM (inactive) in the experiment on SF-539; > 100 µM (inactive) with SK-OV-3; 75.7 µM (inactive) in the experiment with SN12C; > 100 µM (inactive) with UACC-257; > 100 µM (inactive) in the experiment with UO-31.

In the case of `Cc1nn(C)cc1P(=S)(c1ccccc1)c1ccccc1`, the GI50 is > 100 µM (inactive) in the experiment on 786-0; 95.3 µM (inactive) with CAKI-1; 50.4 µM (inactive) in the experiment with HT-29; 58.6 µM (inactive) in the experiment with Malme-3M; > 100 µM (inactive) in the experiment on OVCAR-4; > 100 µM (inactive) in the experiment on OVCAR-5. For the same compound, the GI50 in the experiment with RXF 393 was > 100 µM (inactive); with SF-539, > 100 µM (inactive); with SK-MEL-5, > 100 µM (inactive); with SK-OV-3, 24.8 µM (inactive); in the experiment with SN12C it was > 100 µM (inactive); in the experiment on SR it was 22.5 µM (inactive). Besides, the GI50 is 97.1 µM (inactive) in the experiment on UACC-257 and > 100 µM (inactive) in the experiment on UO-31.

Take `CC(C)C(Sc1nc(-c2ccccc2)c(-c2ccccc2)[nH]1)C(=O)N/N=C/c1ccc([N+](=O)[O-])cc1` (configuration not stated): the GI50 in the experiment with 786-0 is 14.3 µM (inactive); in the experiment with CAKI-1 it was 21.1 µM (inactive); with HT-29, 6.44 µM (inactive); in the experiment with Malme-3M, 13.9 µM (inactive); in the experiment with NCI-H226, 17.9 µM (inactive); with OVCAR-4, 16 µM (inactive). The GI50 in the experiment with OVCAR-5 was 20.1 µM (inactive); with SF-539, 20.5 µM (inactive); in the experiment with SK-MEL-5 it was 9.23 µM (inactive); in the experiment with SK-OV-3, 22.8 µM (inactive); in the experiment with SN12C, 12.5 µM (inactive); in the experiment on SR it was 1.12 µM (inactive). The GI50 in the experiment on UACC-257 was 12.1 µM (inactive); in the experiment with UO-31, 11.3 µM (inactive).

Consider `O=C1C(O)=C(CN(CCCl)CCCl)C(=O)c2ccccc21`, for which the GI50 in the experiment on 786-0 is 28.2 µM (inactive); in the experiment on CAKI-1 it was 39.7 µM (inactive); in the experiment on HT-29, 42.8 µM (inactive); in the experiment with Malme-3M, 53.5 µM (inactive); in the experiment on OVCAR-4, > 100 µM (inactive); with OVCAR-5 it was 76.9 µM (inactive). For the same compound, the GI50 was 28 µM (inactive) with RXF 393; 34 µM (inactive) in the experiment on SF-539; 52.6 µM (inactive) with SK-MEL-5; > 100 µM (inactive) in the experiment with SK-OV-3; 57.1 µM (inactive) in the experiment with SN12C; 35.6 µM (inactive) in the experiment on SR. For the same compound, the GI50 in the experiment on UO-31 is 37.4 µM (inactive).

Turning to `O=C1c2c(nc3ccccc3c2-c2ccccc2)CN1Nc1ccccc1`, the GI50 in the experiment with 786-0, with CAKI-1, in the experiment on HT-29, in the experiment on Malme-3M, in the experiment on NCI-H226 and in the experiment on OVCAR-4 was > 100 µM (inactive) in each case. Moreover, the GI50 in the experiment with OVCAR-5, with SK-MEL-5, with SK-OV-3, with SN12C, with SR and in the experiment on UACC-257 was > 100 µM (inactive) in each case. The GI50 in the experiment with UO-31 was > 100 µM (inactive).

Regarding `COc1ccc2nc(NC(=O)C(=O)NNC(=O)c3ccncc3)sc2c1`, the GI50 in the experiment on 786-0, with CAKI-1, in the experiment with HT-29, in the experiment on Malme-3M, in the experiment with NCI-H226 and in the experiment with OVCAR-4 was > 100 µM (inactive) in each case. The GI50 with RXF 393, with SF-539, in the experiment with SK-MEL-5, in the experiment on SK-OV-3, in the experiment on SN12C and in the experiment on UACC-257 was > 100 µM (inactive) each time. In the experiment with UO-31, the GI50 was > 100 µM (inactive).

For `O=C1c2ccccc2NC1(c1ccccc1)c1c(-c2ccccc2)[nH]c2ccccc12` (configuration not stated), the GI50 in the experiment on 786-0 is 18.2 µM (inactive); in the experiment on CAKI-1 it was 8.77 µM (inactive); in the experiment with HT-29 it was 17.9 µM (inactive); with OVCAR-4 it was 8.99 µM (inactive); in the experiment on RXF 393, 6.22 µM (inactive); in the experiment on SF-539, > 100 µM (inactive). Besides, the GI50 was 37.5 µM (inactive) in the experiment with SK-OV-3; 14 µM (inactive) in the experiment with SN12C; 3.65 µM (inactive) with SR; 44 µM (inactive) in the experiment on UACC-257; 7.82 µM (inactive) in the experiment with UO-31.

For `c1ccc2c(c1)C1CCCCCC21N1CCOCC1` (configuration not stated), the GI50 in the experiment on 786-0 is > 100 µM (inactive); with CAKI-1 it was > 100 µM (inactive); in the experiment on HT-29, 86.3 µM (inactive); in the experiment with NCI-H226 it was 92.9 µM (inactive); in the experiment on OVCAR-4 it was 91 µM (inactive); in the experiment with OVCAR-5 it was > 100 µM (inactive). Besides, the GI50 in the experiment with RXF 393 is > 100 µM (inactive); in the experiment with SF-539, > 100 µM (inactive); in the experiment with SK-MEL-5 it was 44.2 µM (inactive); with SK-OV-3 it was > 100 µM (inactive); in the experiment on SN12C, > 100 µM (inactive); in the experiment on UACC-257 it was > 100 µM (inactive). Also, in the experiment with UO-31, the GI50 was > 100 µM (inactive).

With `COc1c(Cl)c2c(c(OC)c1OC)-c1ccc(OC)c(=O)c(Cl)c1C(NC(C)=O)CC2` (configuration not stated), the GI50 with 786-0 was 0.308 µM (active); in the experiment with CAKI-1, 0.608 µM (active); in the experiment on HT-29, 0.156 µM (active); in the experiment on Malme-3M it was 0.155 µM (active); with NCI-H226 it was 0.316 µM (active); in the experiment on OVCAR-4, 27.1 µM (inactive). Further, the GI50 is 0.0382 µM (active) in the experiment on RXF 393; 0.148 µM (active) in the experiment with SF-539; 0.141 µM (active) in the experiment with SK-MEL-5; 0.133 µM (active) with SK-OV-3; 0.444 µM (active) in the experiment on SN12C; 0.444 µM (active) in the experiment on SR. The results for the GI50 in the experiment on UACC-257 and with UO-31 were 0.14 µM (active) and 3.63 µM (inactive), respectively.

On to `CC1CC2(CC[C@@H]1O)OCCO2` (some centres not stated), for which the GI50 in the experiment on 786-0, with CAKI-1, with HT-29, in the experiment on Malme-3M, in the experiment on OVCAR-4 and with RXF 393 was > 100 µM (inactive) throughout. For the same compound, the GI50 in the experiment with SF-539, in the experiment on SK-MEL-5, in the experiment with SK-OV-3, in the experiment with SN12C, in the experiment on UACC-257 and in the experiment on UO-31 was > 100 µM (inactive) each time.
